Data reported in patent US20060013804A1, “Modulation of stem cell differentiation by modulation of caspase-3 activity” (Ottawa Health Research Institute, priority 2002, published 2006).

Tests used:
Type in all cases: cell-based, mouse
[1] = tested on: endogenous kinases (MBP-directed cellular kinase activities); experiment: Two-dimensional in-gel kinase assay of C2C12 lysates with MBP as substrate; conditions: C2C12, 12 h low serum treatment with inhibitor, vs untreated
Procedure: Samples were subjected to in-gel kinase analyses as previously described (Kolodziejczyk, S. M., et al., (1999) Curr Biol 9, 1203-1206) using MBP or Histone H1 as the target substrate. For two-dimension in-gel kinase analyses, samples were isoelectric focused in the first dimension using pH 4.0-7.0 IPG strips (BioRad). Second dimension analyses was performed using 10% SDS-PAGE containing Histone H1 as the in-gel substrate. Additional in-gel kinase analyses was performed as above.
A two-dimensional in-gel kinase assay was employed using myelin basic protein (MBP) as a target substrate to identify protein kinases that may be targeted by caspase-3 activity. C2C12 cells were treated with caspase-3 inhibitor and total protein lysates were isoelectrically focused in the first dimension and then separated in the second dimension using MBP as the crosslinked substrate. […] Similar results were seen using histone H1 as the in-gel substrate.

MST1 = MST1 immunoblot and immunoprecipitation/Histone H1 kinase assay from C2C12 lysates; conditions: for full-length MST1 protein level: C2C12, initial 24 h of low serum, Western blot
Procedure: Protein isolation, immunoblot analyses and immunocytochemistry. Cells from C2C12 and primary myoblast cultures were washed with ice-cold PBS and lysed on ice for 45 minutes in modified-RIPA buffer containing 20 mM NaF, 5 mM Na3VO4 and 10 μg/ml each of aprotinin, leupeptin, pepstatin and PMSF. Total protein was measured using the BCA protein assay (Pierce). Immunoblot analyses were performed as described (Creasy, C. L., & Chernoff, J. (1995) J. Biol. Chem. 270, 21695-21700) using antibodies for MST1, MKK6, p38γ, and p38α (Upstate), p38 and MEF2C (Cell Signaling Technologies), myogenin F5D and myosin heavy chain MF20 mAb (Developmental Hybridoma Bank), and active caspase-3 (Biovision).
Co-immunoprecipitation and kinase analyses. Immunoprecipitation was performed using 150-200 μg of total protein, incubated in modified-RIPA buffer at 4° C. for 16 h containing the respective antibody. Samples were mixed for 1 h with 25 μl of a 50% Protein G (Pharmacia). For co-immunoprecipitation, immunoprecipitates were washed in modified-RIPA buffer, boiled in 1× Lamelli buffer, separated by SDS-PAGE and Western blotted for immunoblot analyses. Immunoprecipitates used for kinase analyses were washed in modified-RIPA buffer and incubated in kinase buffer containing 20 mM MOPS (pH 7.2), 25 mM β-glycerophosphate, 5 mM EGTA, 1 mM Na3VO4 and 1 mM DTT supplemented with [γ-^32P]ATP and either recombinant MBP or recombinant Histone H1 (Upstate) as the target substrate. Samples were incubated for 30 min at 37° C. and then boiled in 1× Lamelli buffer. Following SDS-PAGE, gels were dried and phospho-incorporation was analyzed by autoradiography.
One kinase that was altered in activity co-migrated with a predicted pI (5.2) and molecular weight (36 kDa) consistent with Mammalian Sterile Twenty-like kinase (MST1). MST1 is a known caspase-3 activated kinase homologous to the yeast family of serine/threonine Ste20 kinases (Lechner, C., et al., (1996) Proc. Natl. Acad. Sci. USA 93, 43554359; Megeney, L. A., et al., (1996) Genes Dev 10, 1173-1183). […]

CD1 neurosphere cells = experiment: Annexin-V-PI flow cytometry of differentiating neurosphere cells
Procedure: Neurospheres were sub-cultured no more than once per collection. The differentiation of neurospheres was initated by plating spheres on poly-L-ornithine coated plates in NeuroCult Differentiation Medium in the absence of bFGF, as per manufacturer's instructions. […] All cultures received fresh media and inhibitor every 24 h for the duration of the experiment. Neurospheres from caspase 3 null embryos (Fernando, P., et al., (2002) Proc Natl Acad Sci USA 99, 11025-11030) were cultured as described above.
Flow Cytometry: Annexin-V-propidium iodide (PI) analysis of apoptotic and nectrotic cells was performed using an Annexin-V-FLUOS staining kit (Roche, USA). Analyses were performed using a Beckman-Coulter ALTRA flow cytometer. To detect Annexin-V and PI positive cells, flow cytometric channels were gated using cells without stain, stained with PI alone and stained with Annexin-V alone. Cells that had dissociated from their neurosphere bodies were gently collected without excessive disruption of the sphere/cell body. These cells were chosen for flow cytometry analyses. Each sample was gated to control for cellular debris.
As in most developmental processes, a population of cells is required to undergo apoptosis prior to the differentiation of a separate pool of cells. Clearly, the inhibition of caspase 3 may adversely affect this process. To address this issue, we measured the degree of apoptosis that occurred during differentiation in caspase 3 inhibited and uninhibited cells using the specific caspase 3 peptide inhibitor zDEVD.fmk and Annexin V-propidium iodide (PI) staining coupled to cytometric analyses (FIG. 15). Annexin V detects cells that are either apoptotic or necrotic whereas propidium iodide is able to detect necrotic cells. Together, Annexin-V-PI analyses identify the population of cells that are apoptotic, i.e. Annexin-V positive/PI negative. To control for the heterogeneity of cells within neurospheres as described previously (Bez et al., (2003) Brain Res 993, 18-29), we performed our analyses on cells that had dissociated from the neurosphere. […]

PAK2 = experiment: Immunoprecipitation/kinase assay of PAK2 from neurospheres; conditions: inhibited vs control treated cultures, neurosphere differentiation

activity of endogenous kinases (in-gel, MBP substrate) [1]: diminished level of activity
full-length MST1 protein level (MST1): remained relatively unchanged
full-length MST1 protein level (MST1; listed as caspase-3 inhibitor): does not change
Compound: COC(=O)CC[C@H](NC(=O)[C@H](CC(=O)OC)NC(=O)OCc1ccccc1)C(=O)N[C@H](C(=O)N[C@@H](CC(=O)OC)C(=O)CF)C(C)C [z-DEVD.fmk]
activity of endogenous kinases (in-gel, MBP substrate) ([1]; listed as caspase-3 inhibitor): significant loss of MBP-directed cellular kinase activities
MST1 kinase activity (Histone H1 phosphorylation) (MST1; MST1 immunoprecipitated from C2C12 lysates, 12 h low serum media): no phosphorylation above basal levels was detectable
Annexin-V positive/PI positive cell population (CD1 neurosphere cells; 12 h in differentiation media, cells dissociated from neurosphere): approximately 27%
level of apoptosis (Annexin-V-PI) (CD1 neurosphere cells; 24 h in differentiation media): 33%
effect on apoptosis during neurosphere differentiation (CD1 neurosphere cells; inhibited relative to uninhibited cells): did not affect apoptosis
PAK2 activity (PAK2): did not observe differences in PAK2 activity
